Data reported in patent publication US20190119284A1, “ErbB Inhibitors and Uses Thereof” (The Regents of the University of California, priority 2016, published 2019).

Tests used:
[1] = biological target: TRKC (Homo sapiens, UniProt Q16288); test: Nanosyn in vitro kinase profiling: TRKC; type: biochemical
Method: (§1) This was confirmed by in vitro profiling against a panel of kinases, with compound 2 only showing potent inhibition of EGFR and Ab1 (Table 2).
(§2) In vitro Kinome Screen. In vitro profiling of compound 2 at 100 nM was conducted by Nanosyn.

[2] = biological target: AKT1 (Homo sapiens, UniProt P31749); test: Nanosyn in vitro kinase profiling: AKT1; type: biochemical
AKT1, sequence (P31749 whole entry): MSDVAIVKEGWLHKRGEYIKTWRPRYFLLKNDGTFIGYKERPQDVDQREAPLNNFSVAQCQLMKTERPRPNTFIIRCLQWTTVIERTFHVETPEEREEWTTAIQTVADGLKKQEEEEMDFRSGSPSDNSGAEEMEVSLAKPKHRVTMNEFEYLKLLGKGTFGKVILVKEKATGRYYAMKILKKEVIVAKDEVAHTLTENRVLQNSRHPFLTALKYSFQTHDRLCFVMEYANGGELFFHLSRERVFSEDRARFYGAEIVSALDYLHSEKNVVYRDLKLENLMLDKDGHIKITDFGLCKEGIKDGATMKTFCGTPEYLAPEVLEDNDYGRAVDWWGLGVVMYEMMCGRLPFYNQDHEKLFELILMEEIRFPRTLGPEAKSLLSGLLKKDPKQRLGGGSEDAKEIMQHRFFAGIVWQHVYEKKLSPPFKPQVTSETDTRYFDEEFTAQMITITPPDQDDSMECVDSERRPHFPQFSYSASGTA
Method: as §1, §2

[3] = biological target: EPH-B4 (Homo sapiens, UniProt P54760); test: Nanosyn in vitro kinase profiling: EPH-B4; type: biochemical
EPH-B4, sequence (P54760 16-987, species assumed): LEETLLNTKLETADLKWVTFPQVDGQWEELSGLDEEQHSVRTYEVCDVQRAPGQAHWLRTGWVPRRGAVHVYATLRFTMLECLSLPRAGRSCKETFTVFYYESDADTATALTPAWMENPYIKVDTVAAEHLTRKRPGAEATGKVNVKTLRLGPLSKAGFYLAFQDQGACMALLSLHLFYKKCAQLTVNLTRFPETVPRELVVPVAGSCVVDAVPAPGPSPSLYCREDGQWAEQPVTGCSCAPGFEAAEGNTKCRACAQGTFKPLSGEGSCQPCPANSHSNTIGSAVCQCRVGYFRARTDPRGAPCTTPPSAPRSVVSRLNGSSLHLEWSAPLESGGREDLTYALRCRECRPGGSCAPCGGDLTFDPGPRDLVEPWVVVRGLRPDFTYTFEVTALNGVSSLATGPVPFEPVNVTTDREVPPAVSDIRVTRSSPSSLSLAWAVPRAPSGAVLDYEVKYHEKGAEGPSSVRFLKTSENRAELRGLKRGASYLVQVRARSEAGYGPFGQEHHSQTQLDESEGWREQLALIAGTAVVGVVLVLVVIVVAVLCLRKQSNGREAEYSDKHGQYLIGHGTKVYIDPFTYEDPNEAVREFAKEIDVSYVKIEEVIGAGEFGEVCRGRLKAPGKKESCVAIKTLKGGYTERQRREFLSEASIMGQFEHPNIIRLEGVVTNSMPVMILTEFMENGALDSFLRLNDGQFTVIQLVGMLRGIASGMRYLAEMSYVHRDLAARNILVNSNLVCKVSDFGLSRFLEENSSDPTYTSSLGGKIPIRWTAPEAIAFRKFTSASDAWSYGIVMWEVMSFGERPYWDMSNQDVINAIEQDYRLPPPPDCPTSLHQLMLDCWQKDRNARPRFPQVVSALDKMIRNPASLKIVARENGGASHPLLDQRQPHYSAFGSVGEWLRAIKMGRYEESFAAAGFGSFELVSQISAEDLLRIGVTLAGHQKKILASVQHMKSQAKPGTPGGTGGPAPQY
Method: as §1, §2

[4] = test system: wt or T787M HER3 kinase domain; test: Thermofluor stabilization of HER3 kinase domain; type: binding; conditions: HER3 T787M vs wt kinase domain
From the text: FIGS. 4A-4F. Compound 2 is a selective Type I inhibitor for HER2. […] FIG. 4B: Thermal stabilization of the HER3 kinase domain by either compound 2 or ATP as determined by Thermofluor (mean±SD, n=3). FIGS. 4C-4D: The crystal structure of either erlotinib (FIG. 4C) or 2 (FIG. 4D) bound to EGFR V924R. The kinase domain in complex with compound 2 has been stabilized in the active confirmation by drug binding, despite the mutation—as evidenced by the ordered extension of the activation loop and the inward positioning of the α-C helix.
FIGS. 12A-12B. […] FIG. 12A. […] FIG. 12B. Stabilization of either wt or T787M HER3 kinase domain by compound 2 compared to DMSO as determined by thermofluor (mean value±SD, n=2).

[5] = biological target: TRKA (Homo sapiens, UniProt P04629); test: Nanosyn in vitro kinase profiling: TRKA; type: biochemical
TRKA, sequence (P04629 33-796, species assumed): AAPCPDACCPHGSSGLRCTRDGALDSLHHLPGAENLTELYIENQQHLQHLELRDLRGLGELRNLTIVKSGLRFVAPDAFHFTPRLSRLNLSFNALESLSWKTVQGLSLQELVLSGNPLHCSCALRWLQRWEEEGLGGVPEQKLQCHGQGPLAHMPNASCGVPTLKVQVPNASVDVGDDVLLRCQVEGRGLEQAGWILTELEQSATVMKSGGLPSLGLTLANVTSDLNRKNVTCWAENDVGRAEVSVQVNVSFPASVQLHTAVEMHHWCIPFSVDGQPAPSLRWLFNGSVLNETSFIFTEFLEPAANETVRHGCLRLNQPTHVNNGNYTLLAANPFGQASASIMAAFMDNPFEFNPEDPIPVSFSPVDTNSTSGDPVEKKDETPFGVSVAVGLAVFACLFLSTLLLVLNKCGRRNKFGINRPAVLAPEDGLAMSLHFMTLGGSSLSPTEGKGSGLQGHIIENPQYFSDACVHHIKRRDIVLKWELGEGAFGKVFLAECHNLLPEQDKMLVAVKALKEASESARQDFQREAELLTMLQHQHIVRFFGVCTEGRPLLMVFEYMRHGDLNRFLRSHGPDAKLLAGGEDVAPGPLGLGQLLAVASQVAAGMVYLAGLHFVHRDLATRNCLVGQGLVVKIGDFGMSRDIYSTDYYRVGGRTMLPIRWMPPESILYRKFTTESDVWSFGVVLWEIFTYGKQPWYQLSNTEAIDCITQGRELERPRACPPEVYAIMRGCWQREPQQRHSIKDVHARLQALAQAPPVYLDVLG
Method: as §1, §2

[6] = biological target: MEK1 (Homo sapiens, UniProt Q02750); test: Nanosyn in vitro kinase profiling: MEK1; type: biochemical; conditions: compound at 1 μM
MEK1, sequence (Q02750 whole entry, species assumed): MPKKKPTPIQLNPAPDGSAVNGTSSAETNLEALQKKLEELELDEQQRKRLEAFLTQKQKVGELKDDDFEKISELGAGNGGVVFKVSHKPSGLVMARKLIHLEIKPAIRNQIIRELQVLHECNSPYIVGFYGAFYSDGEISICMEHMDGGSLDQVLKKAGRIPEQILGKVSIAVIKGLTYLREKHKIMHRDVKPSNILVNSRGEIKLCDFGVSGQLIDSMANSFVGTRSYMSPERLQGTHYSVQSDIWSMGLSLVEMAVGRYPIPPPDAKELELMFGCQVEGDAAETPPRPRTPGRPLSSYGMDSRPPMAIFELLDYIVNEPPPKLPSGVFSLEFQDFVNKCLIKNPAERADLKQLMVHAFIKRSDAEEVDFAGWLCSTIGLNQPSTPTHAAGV

[7] = biological target: JAK1 (Homo sapiens, UniProt P23458); test: Nanosyn in vitro kinase profiling: JAK1; type: biochemical; conditions: compound at 1 μM
[8] = biological target: JAK2 (Homo sapiens, UniProt O60674); test: Nanosyn in vitro kinase profiling: JAK2; type: biochemical; conditions: compound at 1 μM
[9] = biological target: T1, wt EGFR (Homo sapiens, UniProt P00533); test: phosphosite signaling on wt EGFR; type: cell-based
T1 construct: leaving the same phosphosites on wt EGFR relatively unaffected up to 1 μM; endogenous in cells

[10] = test system: NRG autocrine signaling in CHL-1 cells; test: NRG autocrine feedback signaling in CHL-1 cells (immunoblot); type: cell-based; conditions: CHL-1 cells pre-treated with lapatinib 24 h, washed, drug 24 h; at 1 μM
Method: Similar results were obtained in FaDu cells, which are also dependent on NRG autocrine signaling (FIGS. 20A-20B).
Immunoblotting. Cells were grown in 6 well plates and treated according to the indicated conditions at which point the media was aspirated, cells were washed with 1 mL of cold PBS, which was then aspirated and the plates were frozen at −80° C. The frozen cells were thawed on the plates in a buffer containing 50 mM Tris pH 7.5, 150 mM NaCl, 1 mM EDTA, and 1% Triton X-100 supplemented with 1× phosphatase (PhoSTOP, Roche) and 1× protease (complete-mini tablets, Roche) inhibitors. Lysates were scraped, transferred to Eppendorf tubes, and cleared by centrifugation at 20,000×g for 20 min at 4° C. The clarified lysates were transferred to chilled, clean tubes, and normalized for protein concentration by Bradford (Bio-Rad). The normalized lysates were diluted with Laemmli loading buffer, and 10 μg of total protein was run on a 4-12% gradient gel (Invitrogen), which was then transferred to […] nitrocellulose (Bio-Rad) and analyzed using the indicated primary antibodies according to the manufacturer's recommendations. Primary antibodies were detected using IRDye secondary antibodies (Li-Cor) according to the manufacturer's recommendations and scanned on an Odyssey imager (Li-Cor). Scanned images were cropped and assembled in Adobe Illustrator 6.

[11] = biological target: mutationally activated forms of EGFR (Homo sapiens, UniProt P00533, DEL746-750); test: EGFR phosphosite signaling in NCI-H1650 cells; type: cell-based; design: endogenous in cells; host or cells: NCI-H1650 (A2); conditions: concentration giving near complete inhibition
mutationally activated forms of EGFR, sequence (P00533 with tags, fused parts or gaps DEL746-750): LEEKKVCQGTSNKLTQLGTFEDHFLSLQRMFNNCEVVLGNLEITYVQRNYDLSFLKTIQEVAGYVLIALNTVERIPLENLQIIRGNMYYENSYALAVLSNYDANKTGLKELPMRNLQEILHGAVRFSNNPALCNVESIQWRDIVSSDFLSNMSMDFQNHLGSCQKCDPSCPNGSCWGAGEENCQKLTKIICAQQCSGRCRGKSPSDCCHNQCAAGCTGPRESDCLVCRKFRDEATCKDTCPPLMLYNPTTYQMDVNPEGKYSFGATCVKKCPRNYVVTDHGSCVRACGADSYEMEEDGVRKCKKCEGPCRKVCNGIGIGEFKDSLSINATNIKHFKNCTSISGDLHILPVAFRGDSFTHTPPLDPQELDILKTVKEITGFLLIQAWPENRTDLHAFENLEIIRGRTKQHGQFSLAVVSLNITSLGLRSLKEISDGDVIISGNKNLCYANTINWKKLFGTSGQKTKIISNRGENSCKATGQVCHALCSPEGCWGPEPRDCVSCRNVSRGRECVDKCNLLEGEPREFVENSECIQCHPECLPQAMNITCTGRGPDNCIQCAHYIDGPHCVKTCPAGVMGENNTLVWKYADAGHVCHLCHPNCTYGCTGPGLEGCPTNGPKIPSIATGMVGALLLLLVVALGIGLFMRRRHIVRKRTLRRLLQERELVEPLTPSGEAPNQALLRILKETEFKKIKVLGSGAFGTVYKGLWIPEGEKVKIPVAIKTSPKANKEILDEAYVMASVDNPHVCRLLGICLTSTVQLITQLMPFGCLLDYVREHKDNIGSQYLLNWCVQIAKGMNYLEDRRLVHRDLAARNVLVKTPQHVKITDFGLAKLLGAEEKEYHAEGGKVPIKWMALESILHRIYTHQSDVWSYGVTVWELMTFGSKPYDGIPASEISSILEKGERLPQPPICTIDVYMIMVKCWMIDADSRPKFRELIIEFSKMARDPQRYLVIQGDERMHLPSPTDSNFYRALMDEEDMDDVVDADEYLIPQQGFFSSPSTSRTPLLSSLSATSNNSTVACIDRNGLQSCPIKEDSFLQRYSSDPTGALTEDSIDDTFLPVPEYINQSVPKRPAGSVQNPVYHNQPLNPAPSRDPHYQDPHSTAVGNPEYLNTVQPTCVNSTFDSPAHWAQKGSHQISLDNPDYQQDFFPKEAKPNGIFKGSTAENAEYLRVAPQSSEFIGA

[12] = test system: HER2/HER3 signaling in FaDu cells; test: HER2/HER3 signaling in FaDu cells, 24 h; type: cell-based; conditions: dose response 24 h, compared with lapatinib
From the text: FIGS. 20A-20B. […] FIG. 20A. […] FIG. 20B.

[13] = biological target: PRKACA (Homo sapiens, UniProt P17612); test: Nanosyn in vitro kinase profiling: PRKACA; type: biochemical; conditions: compound at 1 μM
[14] = test system: HER2 overexpressing cell lines (BT-474, SK-BR-3); test: cell death with CellTox green (Incucyte Zoom), 72 h +/- NRG; type: cell-based; conditions: BT-474 and SK-BR-3, 72 h +/- NRG
Method: FIGS. 15A-15C. NRG rescues HER2 overexpressing cell lines from type 1.5 inhibitors but not compound 3. FIG. 15A. BT-474 cells were treated with the indicated concentrations of drugs in the presence or absence of NRG for 72 h. Cell death was determined using CellTox green with the Incucyte Zoom data are represented as mean values±SD (n=3). FIG. 15B. Same experiment as in FIG. 15A, but with SK-BR-3 cells. c. Cells were treated with 1 μM of the indicated inhibitor in the presence of varying concentrations of NRG. The lapatininb data is reproduced from FIG. 1C (mean value±SD, n=3).

TRKC, sequence (Q16288 32-839): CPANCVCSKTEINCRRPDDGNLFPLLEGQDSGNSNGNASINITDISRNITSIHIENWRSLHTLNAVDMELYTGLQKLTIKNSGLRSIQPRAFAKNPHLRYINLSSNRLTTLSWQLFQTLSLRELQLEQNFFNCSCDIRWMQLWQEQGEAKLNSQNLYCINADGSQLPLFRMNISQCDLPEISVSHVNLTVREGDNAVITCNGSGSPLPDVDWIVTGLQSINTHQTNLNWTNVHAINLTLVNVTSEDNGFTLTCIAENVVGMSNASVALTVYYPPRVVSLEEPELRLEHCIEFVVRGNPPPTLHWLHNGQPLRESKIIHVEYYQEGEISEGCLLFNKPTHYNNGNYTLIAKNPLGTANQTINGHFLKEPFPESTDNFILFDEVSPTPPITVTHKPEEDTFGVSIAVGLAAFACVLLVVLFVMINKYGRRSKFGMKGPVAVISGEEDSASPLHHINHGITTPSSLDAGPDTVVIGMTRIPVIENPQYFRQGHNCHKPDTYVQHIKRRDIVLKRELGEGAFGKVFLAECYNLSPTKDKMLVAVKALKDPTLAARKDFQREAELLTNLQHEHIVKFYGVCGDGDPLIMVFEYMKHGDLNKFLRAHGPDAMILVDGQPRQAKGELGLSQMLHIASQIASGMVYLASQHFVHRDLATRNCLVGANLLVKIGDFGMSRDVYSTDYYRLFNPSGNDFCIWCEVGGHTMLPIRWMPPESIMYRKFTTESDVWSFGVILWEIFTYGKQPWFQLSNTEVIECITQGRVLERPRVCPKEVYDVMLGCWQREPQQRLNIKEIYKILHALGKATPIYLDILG

| Structure (SMILES) | inhibition at 0.1 µM ([1]; compound at 100 nM) [%] | inhibition at 1 µM ([1]; compound at 1 μM) [%] | inhibition at 0.1 µM ([2]; compound at 100 nM) [%] | inhibition at 1 µM ([2]; compound at 1 μM) [%] | inhibition at 0.1 µM ([3]; compound at 100 nM) [%] | inhibition at 1 µM ([3]; compound at 1 μM) [%] | effect of gatekeeper mutation on binding affinity [4] | inhibition at 0.1 µM ([5]; compound at 100 nM) [%] | inhibition at 1 µM ([5]; compound at 1 μM) [%] | inhibition at 1 µM [6] [%] | inhibition at 1 µM [7] [%] | inhibition at 1 µM [8] [%] | same phosphosites on wt EGFR relatively unaffected up to [9] [µM] | inhibition of feedback-released signaling [10] | near complete inhibition of multiple phosphosites on EGFR [11] | inhibition of pHER3 and downstream signaling [12] | inhibition at 1 µM [13] [%] | rescue by NRG [14] |
| --- | --- | --- | --- | --- | --- | --- | --- | --- | --- | --- | --- | --- | --- | --- | --- | --- | --- | --- |
| COc1ccc(-c2ccco2)cc1Nc1ncnc2[nH]nc(-c3ccco3)c12 [compound 2, 3-(furan-2-yl)-N-(5-(furan-2-yl)-2-methoxyphenyl)-1H-pyrazolo[3,4-d]pyrimidin-4-amine] | 15.7 | 46.9 | 14.3 | 33 | 3.44 | 21.7 | reduces the binding affinity | 2.38 | 4.5 |  |  |  |  |  |  |  |  |  |
| COc1ccc(-c2ccoc2)cc1Nc1ncnc2[nH]cc(-c3cc[nH]n3)c12 [compound 3, N-(5-(furan-3-yl)-2-methoxyphenyl)-5-(1H-pyrazol-3-yl)-7H-pyrrolo[2,3-d]pyrimidin-4-amine] |  |  |  |  |  |  |  |  |  | 66 | 52 | 83 | > 1 | complete inhibition | less than 10 nM | better able to inhibit pHER3 and its downstream signaling pathways | 20 | not |
